Source: ChEMBL document CHEMBL1131808, “Potent immunosuppressive C32-O-arylethyl ether derivatives of ascomycin with reduced toxicity” (Bioorg Med Chem Lett, 1999)
Activity calls are given as the source filed them. The calls are words filed in the database; no cut-off is given here.

Assays:
[1] = system: Rattus norvegicus; assay: Cytotoxicity was determined by hypothermia induction after intravenous administration in rat; type: functional
[2] = system: Mus musculus; assay: In vivo immunosuppression in murine models by splenic T-cell proliferation assay after intravenous administration; type: functional
[3] = Ratio of hypothermia (ED50) by Murine (ED50) in vivo; type: functional
[4] = target: Peptidyl-prolyl cis-trans isomerase FKBP1A (Homo sapiens, UniProt P62942); assay: Effective concentration against FK506 binding protein 12 using [3H]-dihydro FK-506
[5] = system: Rattus norvegicus; assay: The compound was tested for % reduction of nephrotoxicity in rat after intravenous administration at dose 20 mg/kg; NE denotes no effect; type: functional, organism-based; parameters: dose 20 mg/kg
[6] = organism: Mus musculus; assay: The compound was tested for its inhibitory activity against T-cell proliferation using murine splenic T-cells; type: functional
[7] = system: Mus musculus; assay: In vivo immunosuppression in murine models by splenic T-cell proliferation assay after peroral administration; type: functional; conditions: po
[8] = system: Rattus norvegicus; assay: The compound was tested for % reduction of nephrotoxicity in rat after intravenous administration at dose 5 mg/kg; type: functional
[9] = system: Rattus norvegicus; assay: The compound was tested for % reduction of nephrotoxicity in rat after intravenous administration at dose 20 mg/kg; type: functional
[10] = system: Rattus norvegicus; assay: The compound was tested for % reduction of nephrotoxicity in rat after intravenous administration at dose 10 mg/kg; type: functional
[11] = system: Rattus norvegicus; assay: Tested for nephrotoxicity in Dawley rats and measured for blood urea nitrogen levels after intravenous administration at dose 5 mg/kg; type: functional
[12] = system: Rattus norvegicus; assay: Tested for nephrotoxicity in Dawley rats and measured for blood urea nitrogen levels after intravenous administration at dose 10 mg/kg; type: functional
[13] = system: Rattus norvegicus; assay: Tested for nephrotoxicity in Dawley rats and measured for blood urea nitrogen levels after intravenous administration at dose 2.5 mg/kg; type: functional
[14] = system: Rattus norvegicus; assay: The compound was tested for % reduction of nephrotoxicity in rat after intravenous administration at dose 1.7 mg/kg; type: functional
[15] = system: Rattus norvegicus; assay: Tested for nephrotoxicity in Dawley rats and measured for plasma drug level after intravenous administration at dose 5 mg/kg; type: functional
[16] = system: Rattus norvegicus; assay: Tested for nephrotoxicity in Dawley rats and measured for plasma drug level after intravenous administration at dose 2.5 mg/kg; type: functional
[17] = system: Rattus norvegicus; assay: Tested for nephrotoxicity in Dawley rats and measured for plasma drug level after intravenous administration at dose 10 mg/kg; type: functional
[18] = system: Rattus norvegicus; assay: Tested for nephrotoxicity in Dawley rats and measured for plasma drug level after intravenous administration at dose 40 mg/kg; type: functional
[19] = system: Rattus norvegicus; assay: Tested for nephrotoxicity in Dawley rats and measured for blood urea nitrogen levels after intravenous administration at dose 20 mg/kg; type: functional
[20] = system: Rattus norvegicus; assay: Tested for nephrotoxicity in Dawley rats and measured for blood urea nitrogen levels after intravenous administration at dose 40 mg/kg; type: functional
[21] = system: Rattus norvegicus; assay: Tested for nephrotoxicity in Dawley rats and measured for plasma drug level after intravenous administration at dose 20 mg/kg; type: functional

Sequence of Peptidyl-prolyl cis-trans isomerase FKBP1A (P62942 whole entry): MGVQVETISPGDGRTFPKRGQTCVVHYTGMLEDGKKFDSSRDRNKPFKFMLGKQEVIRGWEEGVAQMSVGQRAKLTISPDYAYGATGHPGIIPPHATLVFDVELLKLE

Row | Structure (SMILES) | EC50 [4] [pM] | ED50 [1] [mg/kg] | ED50 [2] [mg/kg] | Therapeutic index [3] | IC50 [6] [pM] | ED50 [7] [mg/kg] | also measured
1 | CC[C@@H]1/C=C(\C)C[C@H](C)C[C@H](OC)[C@H]2O[C@@](O)(C(=O)C(=O)N3CCCC[C@H]3C(=O)O[C@H](/C(C)=C/C3CC[C@@H](OC[C@@H](O)c4cccc(C(F)(F)F)c4)[C@H](OC)C3)[C@H](C)[C@H](O)CC1=O)[C@H](C)C[C@@H]2OC (stereo partly specified) | 45000 | 12.8 | 0.31 | 41 | 380 | 3.7 | Reduction [5]: inactive
2 | CC[C@@H]1/C=C(\C)C[C@H](C)C[C@H](OC)[C@H]2O[C@@](O)(C(=O)C(=O)N3CCCC[C@H]3C(=O)O[C@H](/C(C)=C/C3CC[C@@H](OC[C@H](O)c4ccc5ccccc5c4)[C@H](OC)C3)[C@H](C)[C@H](O)CC1=O)[C@H](C)C[C@@H]2OC (stereo partly specified) | 18000 | 14.2 | 0.38 | 37 | 340 | 3.4 | Reduction [9]: 40%
3 | C=CC[C@@H]1/C=C(\C)C[C@H](C)C[C@H](OC)[C@H]2O[C@@](O)(C(=O)C(=O)N3CCCC[C@H]3C(=O)O[C@H](/C(C)=C/[C@@H]3CC[C@@H](O)[C@H](OC)C3)[C@H](C)C(O)CC1=O)[C@H](C)C[C@@H]2OC (single isomer, unassigned) [TACROLIMUS ANHYDROUS] | – | 3.7 | 0.22 | – | 200 | 2.6 | Nephrotoxicity [11]: 21 mg/dL; Nephrotoxicity [12]: 26 mg/dL; Nephrotoxicity [13]: 18.1 mg/dL; Reduction [14]: 45%; Nephrotoxicity [15]: 45 ng/mL; Nephrotoxicity [16]: 13 ng/mL; Nephrotoxicity [17]: 611 ng/mL
4 | CC[C@@H]1/C=C(\C)C[C@H](C)C[C@H](OC)[C@H]2O[C@@](O)(C(=O)C(=O)N3CCCC[C@H]3C(=O)O[C@H](/C(C)=C/C3CC[C@@H](OC[C@H](O)c4cccc(C(F)(F)F)c4)[C@H](OC)C3)[C@H](C)[C@H](O)CC1=O)[C@H](C)C[C@@H]2OC (stereo partly specified) | 45000 | 13.7 | 0.29 | 47 | 380 | 5 | Reduction [8]: 51%
5 | CC[C@@H]1/C=C(\C)C[C@H](C)C[C@H](OC)[C@H]2O[C@@](O)(C(=O)C(=O)N3CCCC[C@H]3C(=O)O[C@H](/C(C)=C/C3CC[C@@H](OC[C@@H](O)c4ccc5ccccc5c4)[C@H](OC)C3)[C@H](C)[C@H](O)CC1=O)[C@H](C)C[C@@H]2OC (stereo partly specified) | 21100 | 21.6 | 0.38 | 57 | 330 | 3.7 | Nephrotoxicity [18]: 3120 ng/mL; Nephrotoxicity [11]: 16.3 mg/dL; Reduction [9]: 41%; Nephrotoxicity [19]: 24.7 mg/dL; Nephrotoxicity [20]: 39.3 mg/dL; Nephrotoxicity [21]: 1897 ng/mL; Nephrotoxicity [12]: 17.7 mg/dL; Nephrotoxicity [15]: 239 ng/mL; Nephrotoxicity [17]: 478 ng/mL
6 | CC[C@@H]1/C=C(\C)C[C@H](C)C[C@H](OC)[C@H]2O[C@@](O)(C(=O)C(=O)N3CCCC[C@H]3C(=O)O[C@H](/C(C)=C/C3CC[C@@H](OC[C@H](O)c4ccc(F)c(F)c4)[C@H](OC)C3)[C@H](C)[C@H](O)CC1=O)[C@H](C)C[C@@H]2OC (stereo partly specified) | 13600 | 13.7 | 0.19 | 72 | 110 | 3.9 | Reduction [8]: 54%

Continued, in another order:

Row | EC50 [4] [pM] | Structure (SMILES) | ED50 [1] [mg/kg] | ED50 [2] [mg/kg] | Therapeutic index [3] | IC50 [6] [pM] | ED50 [7] [mg/kg] | also measured
7 | 12000 | CC[C@@H]1/C=C(\C)C[C@H](C)C[C@H](OC)[C@H]2O[C@@](O)(C(=O)C(=O)N3CCCC[C@H]3C(=O)O[C@H](/C(C)=C/C3CC[C@@H](OC[C@H](O)c4cc5ccccc5s4)[C@H](OC)C3)[C@H](C)[C@H](O)CC1=O)[C@H](C)C[C@@H]2OC (stereo partly specified) | – | 0.53 | – | 470 | 5.6 | –
8 | 11200 | CC[C@@H]1/C=C(\C)C[C@H](C)C[C@H](OC)[C@H]2O[C@@](O)(C(=O)C(=O)N3CCCC[C@H]3C(=O)O[C@H](/C(C)=C/C3CC[C@@H](OC[C@@H](O)c4cc5ccccc5s4)[C@H](OC)C3)[C@H](C)[C@H](O)CC1=O)[C@H](C)C[C@@H]2OC (stereo partly specified) | 14.8 | 0.75 | 20 | 390 | 6.4 | Reduction [8]: 32%
9 | 7500 | CC[C@@H]1/C=C(\C)C[C@H](C)C[C@H](OC)[C@H]2O[C@@](O)(C(=O)C(=O)N3CCCC[C@H]3C(=O)O[C@H](/C(C)=C/C3CC[C@@H](OC[C@@H](O)c4ccc(F)c(F)c4)[C@H](OC)C3)[C@H](C)[C@H](O)CC1=O)[C@H](C)C[C@@H]2OC (stereo partly specified) | 10 | 0.19 | 52 | 140 | 2.8 | Reduction [10]: 44%
10 | 9000 | CC[C@@H]1/C=C(\C)C[C@H](C)C[C@H](OC)[C@H]2O[C@@](O)(C(=O)C(=O)N3CCCC[C@H]3C(=O)O[C@H](/C(C)=C/C3CC[C@@H](OC[C@H](O)c4cc(C)cc(C)c4)[C@H](OC)C3)[C@H](C)[C@H](O)CC1=O)[C@H](C)C[C@@H]2OC (stereo partly specified) | 7.25 | 0.49 | 15 | 340 | 4.8 | Reduction [10]: 48%
11 | 7500 | CC[C@@H]1/C=C(\C)C[C@H](C)C[C@H](OC)[C@H]2O[C@@](O)(C(=O)C(=O)N3CCCC[C@H]3C(=O)O[C@H](/C(C)=C/C3CC[C@@H](OC[C@@H](O)c4cc(C)cc(C)c4)[C@H](OC)C3)[C@H](C)[C@H](O)CC1=O)[C@H](C)C[C@@H]2OC (stereo partly specified) | 10.3 | 0.45 | 23 | 230 | 4.5 | Reduction [5]: inactive
